One series deals with T1, fMet-Leu-Phe receptor (Homo sapiens, UniProt P21462).
T1 sequence (P21462 whole entry): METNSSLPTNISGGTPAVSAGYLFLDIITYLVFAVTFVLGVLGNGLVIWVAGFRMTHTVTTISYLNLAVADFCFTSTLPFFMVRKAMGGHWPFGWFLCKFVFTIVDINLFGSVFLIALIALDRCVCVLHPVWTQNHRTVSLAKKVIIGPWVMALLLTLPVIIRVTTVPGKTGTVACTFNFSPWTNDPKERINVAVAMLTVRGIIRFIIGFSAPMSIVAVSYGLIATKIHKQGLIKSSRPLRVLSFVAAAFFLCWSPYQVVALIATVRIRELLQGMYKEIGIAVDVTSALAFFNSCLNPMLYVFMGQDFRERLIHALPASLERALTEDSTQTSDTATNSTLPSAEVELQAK
Nature of the series: Agonist activity at human FPR1 transfected in human HL60 cells assessed as stimulation of Ca2+ influx measured every 5 secs for 240 secs by FLIPR assay. It counts as functional, cell-based, HL-60.

Series [1] deals with T2, N-formyl peptide receptor 2 (Homo sapiens, UniProt P25090).
T2 sequence (P25090 whole entry): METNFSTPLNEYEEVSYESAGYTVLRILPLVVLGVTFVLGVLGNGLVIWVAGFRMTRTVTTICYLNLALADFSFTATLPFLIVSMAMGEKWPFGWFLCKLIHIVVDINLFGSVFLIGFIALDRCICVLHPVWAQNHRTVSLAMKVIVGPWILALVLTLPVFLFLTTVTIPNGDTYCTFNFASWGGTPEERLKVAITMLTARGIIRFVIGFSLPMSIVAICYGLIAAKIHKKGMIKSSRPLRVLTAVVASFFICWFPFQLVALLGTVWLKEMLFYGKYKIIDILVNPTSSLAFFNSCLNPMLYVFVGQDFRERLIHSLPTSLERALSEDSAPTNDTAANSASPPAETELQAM
Nature of the series: Agonist activity at human FPR2 transfected in human HL60 cells assessed as stimulation of Ca2+ influx measured every 5 secs for 240 secs by FLIPR assay. The class given is functional, cell-based, HL-60.

Series [2] addresses T3, N-formyl peptide receptor 2 (Homo sapiens) (UniProt P25090).
T3 sequence (whole entry): T2 sequence (P25090 whole entry)
Nature of the series: Agonist activity at human FPR2 transfected in human HL60 cells assessed as stimulation of Ca2+ influx measured every 5 secs for 240 secs by FLIPR assay relative to WKYMVm. It counts as functional, cell-based. The following applies: HL-60.

Series [3] concerns the target T2, N-formyl peptide receptor 2. In words: Agonist activity at FPR2 in human PMN assessed as stimulation of Ca2+ influx measured every 5 secs for 240 secs by FLIPR assay in absence of probenecid. The class given is functional.
Series [4] shares this target. In words: Agonist activity at FPR2 in human PMN assessed as stimulation of Ca2+ influx measured every 5 secs for 240 secs by FLIPR assay in presence of probenecid. It counts as functional.
Series [5] has as its target T3, N-formyl peptide receptor 2 (Homo sapiens). In words: Agonist activity at FPR2 in human PMN assessed as stimulation of Ca2+ influx measured every 5 secs for 240 secs by FLIPR assay relative to fMLF in presence of probenecid. The class given is functional.
The target of series [6] is T4, Formyl peptide receptor-related sequence 1 (Mus musculus) (UniProt O08790).
T4 sequence (whole entry): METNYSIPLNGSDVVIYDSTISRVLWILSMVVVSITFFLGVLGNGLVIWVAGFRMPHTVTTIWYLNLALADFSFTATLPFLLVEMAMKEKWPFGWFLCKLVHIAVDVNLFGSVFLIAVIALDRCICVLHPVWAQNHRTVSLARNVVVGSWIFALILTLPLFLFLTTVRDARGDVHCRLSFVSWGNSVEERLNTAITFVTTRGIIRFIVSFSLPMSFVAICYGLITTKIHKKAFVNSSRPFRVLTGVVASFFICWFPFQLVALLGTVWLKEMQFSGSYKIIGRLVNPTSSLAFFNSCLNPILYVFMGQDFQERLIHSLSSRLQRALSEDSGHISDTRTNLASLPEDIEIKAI
In words: Agonist activity at FPR2 in BALB/c mouse assessed as stimulation of Ca2+ influx measured every 5 secs for 240 secs by FLIPR assay relative to fMLF. The class given is functional.

Series [7] addresses T3, N-formyl peptide receptor 2 (Homo sapiens). In words: Agonist activity at FPR2 in human PMN assessed as stimulation of Ca2+ influx measured every 5 secs for 240 secs by FLIPR assay relative to fMLF in absence of probenecid. The class given is functional.
Series [8] relates to Liver microsome. The following applies: rat, microsomes, 1 µM.
Description: Half life in rat liver microsomes at 1 uM preincubated for 10 mins followed by addition of NADPH regenerating system by LC-MS analysis
Series [9] relates to Liver microsome. The following applies: rat, microsomes, 1 µM. The source holds these as a separate data set.
The target of series [10] is T5, fMet-Leu-Phe receptor (Homo sapiens) (UniProt P21462).
T5 sequence (whole entry): T1 sequence (P21462 whole entry)
In words: Agonist activity at human FPR1 transfected in human HL60 cells assessed as stimulation of Ca2+ influx measured every 5 secs for 240 secs by FLIPR assay relative to fMLF. Particulars: HL-60; call rule not given here. It counts as functional, cell-based.

The record followed here is ChEMBL document CHEMBL3588779, “Novel 3-(1H-indol-3-yl)-2-[3-(4-methoxyphenyl)ureido]propanamides as selective agonists of human formyl-peptide receptor 2” (Bioorg Med Chem, 2015).

One may read the EC50 as the concentration that produces a half-maximal response. With `COc1ccc(NC(=O)N[C@@H](Cc2c[nH]c3ccccc23)C(=O)NCC2(c3ccc(F)cc3)CCCCC2)cc1`, the EC50 result was “Not Active” on fMet-Leu-Phe receptor (hl-60), 860 nM in [1] (read-out: EC50), “Not Active” in [3] and 1100 nM in [4] (read-out: EC50). In addition, the Efficacy in [2] was found to be 40%; in series [5], 55%; in series [6], 25%.

`COc1ccc(NC(=O)N[C@@H](Cc2c[nH]c3ccccc23)C(=O)NCC2(c3ccnc(F)c3)CCCCC2)cc1`: the EC50 result at fMet-Leu-Phe receptor (hl-60) was “Not Active”; in series [1] (read-out: EC50), 1600 nM; in [3] (read-out: EC50), 12600 nM; in [4] (read-out: EC50) it was 660 nM. For the same compound, the Efficacy in series [2] is 115%; in series [7] it was 55%; in [5] it was 130%; in [6], 50%.

`O=C(O)Cc1ccccc1Nc1c(Cl)cccc1Cl` [DICLOFENAC] displayed a t1/2 in the series with Liver microsome [8] of 8.7 min. The same compound showed a CLH with Liver microsome [9] of 159.8 µL/min/mg.

On to `COc1ccc(NC(=O)N[C@@H](Cc2c[nH]c3ccccc23)C(=O)NCC2(c3ccccn3)CCCCC2)cc1`, for which the EC50 stood at 950 nM at fMet-Leu-Phe receptor (read-out: EC50), 430 nM in series [1] (read-out: EC50), 1800 nM in series [3] (read-out: EC50) and 450 nM in series [4] (read-out: EC50). Also, the Efficacy in [10] stood at 115%; in [2], 135%; in series [7] it was 85%; in series [5], 120%; in series [6] it was 80%. The CLH in the series on Liver microsome [9] amounted to 2173.4 µL/min/mg.

`COc1ccc(C2(CNC(=O)[C@](C)(Cc3c[nH]c4ccccc34)NC(=O)Nc3ccc([N+](=O)[O-])cc3)CCCCC2)nc1` showed a t1/2 with Liver microsome [8] of 4.4 min. For the same compound, the CLH in the series on Liver microsome [9] came out at 314.1 µL/min/mg.

`COc1ccc(NC(=O)N[C@@H](Cc2c[nH]c3ccccc23)C(=O)NCC2(c3cccnc3)CCCCC2)cc1`: the EC50 result on fMet-Leu-Phe receptor (hl-60) is “Not Active”; in series [1] (read-out: EC50), 730 nM; in series [3] (read-out: EC50), 1800 nM; in [4] (read-out: EC50), 270 nM. In addition, the Efficacy came out at 75% in series [2], 30% in series [7], 105% in series [5] and 75% in [6].

Turning to `COc1ccc(NC(=O)N[C@H](Cc2c[nH]c3ccccc23)C(=O)NCC2(c3ccc(OC)cn3)CCCCC2)cc1`, the concentration for a half-maximal effect (EC50) result at fMet-Leu-Phe receptor (hl-60) was “Not Active”. In addition, the Efficacy in [2] is 100%; in [7] it was 40%; in [5], 95%; in series [6] it was 30%. For the same compound, the t1/2 in the series on Liver microsome [8] is reported as 1.2 min. The same compound displayed a CLH with Liver microsome [9] of 1290.6 µL/min/mg.

With `COc1ccc(NC(=O)N[C@@H](Cc2c[nH]c3ccccc23)C(=O)NCC2(c3ccc(OC)cn3)CCCCC2)cc1`, the 50% effective concentration (EC50) at fMet-Leu-Phe receptor (read-out: EC50) amounted to 430 nM. Also, the Efficacy was determined as 130% in series [10], 120% in series [2], 105% in series [5] and 110% in [6]. In the series on Liver microsome [8], this compound returned a t1/2 of 1.1 min. The same compound registered a CLH in the series with Liver microsome [9] of 1162.4 µL/min/mg.

`COc1ccc(NC(=O)N[C@H](Cc2c[nH]c3ccccc23)C(=O)NCC2(c3ccccn3)CCCCC2)cc1`: the EC50 entry was “Not Active” at fMet-Leu-Phe receptor (hl-60), 310 nM in series [1] (read-out: EC50), 620 nM in series [3] (read-out: EC50) and 490 nM in series [4] (read-out: EC50). Besides, the Efficacy in series [2] worked out at 90%; in series [7], 40%; in series [5], 115%; in series [6], 55%. Besides, the t1/2 in the series on Liver microsome [8] is listed as 0.6 min. Also, the CLH in the series on Liver microsome [9] worked out at 2476 µL/min/mg.

As to `COc1ccc(NC(=O)N[C@H](Cc2c[nH]c3ccccc23)C(=O)NCC2(c3ccc(F)cc3)CCCCC2)cc1`, the EC50 result (at fMet-Leu-Phe receptor (hl-60); in series [1] (hl-60); in series [3]; in series [4]) was “Not Active” in each case. Further, the Efficacy in [6] was 25%.

For `COc1ccc(NC(=O)N[C@@H](Cc2c[nH]c3ccccc23)C(=O)NCC2(c3ccccc3)CCCCC2)cc1`, the EC50 result (at fMet-Leu-Phe receptor (hl-60); in series [1] (hl-60); in series [3]; in series [4]) was “Not Active” in each case. The Efficacy in series [6] amounted to 60%.

Turning to `COc1ccc(NC(=O)N[C@H](Cc2c[nH]c3ccccc23)C(=O)NCC2(c3ccccc3)CCCCC2)cc1`, the EC50 result was “Not Active” on fMet-Leu-Phe receptor (hl-60), 260 nM in series [1] (read-out: EC50), “Not Active” in series [3] and 970 nM in series [4] (read-out: EC50). For the same compound, the figures for the Efficacy in series [2], in series [5] and in series [6] were 65%, 40% and 35%, respectively.

In the case of `COc1ccc(NC(=O)N[C@H](Cc2c[nH]c3ccccc23)C(=O)NCC2(c3ccnc(F)c3)CCCCC2)cc1`, the EC50 entry (at fMet-Leu-Phe receptor (hl-60); in series [1] (hl-60); in series [3]; in series [4]) was “Not Active” in each case. In series [6], the Efficacy was determined as 65%.

Take `COc1ccc(NC(=O)N[C@H](Cc2c[nH]c3ccccc23)C(=O)NCC2(c3cccnc3)CCCCC2)cc1`: the EC50 result (on fMet-Leu-Phe receptor (hl-60); in series [1] (hl-60); in series [3]; in series [4]) was “Not Active” in each case. In addition, the Efficacy in [6] was determined as 80%.
